{"source": "patent US12558343B2", "about": "“Medical use of icaritin” (Lunan Pharmaceutical Group Corporation, priority 2020, dated 2026)", "key": {"[1]": {"test_system": "prolonged bleeding time caused by heparin sodium", "experiment": "Tail-cut bleeding time in mice, prolonged by heparin sodium", "assay_type": "in vivo, ICR mice", "settings": "group P, 200 mg/kg i.p. once a day 5 days; heparin sodium 150 U/kg i.v.", "from_the_text": "72 ICR mice aged 5-6 weeks, weighing 19-21 g, and half male and half female were selected. The mice were quarantined for 7 days after entering a laboratory and healthy mice were selected as test animals. The mice were weighed on first and last days of quarantine. According to the body weight on the last day of the quarantine, the male and female animals were divided into six groups by a simplified random method, namely, a normal group (C), a model group (V), low-, medium- and high-dose icaritin groups (2, 6, and 18 mg/kg, L, M, H) and a positive control drug group (200 mg/kg of etamsylate, P).\n(§1) After 15 min of the modeling, the tails of the mice were cut and bleeding time of each mouse was measured."}, "[2]": {"test_system": "prolonged bleeding time caused by aspirin", "experiment": "Tail-cut bleeding time in mice, prolonged by aspirin", "assay_type": "in vivo, ICR mice", "settings": "group P, 200 mg/kg i.p. once a day 5 days; aspirin 20 mg/kg i.g.", "experimental": "According to the body weight on the last day of the quarantine, the male and female animals were divided into six groups by a simplified random method, namely, a normal group (C), a model group (V), icaritin low-, medium- and high-dose groups (2, 6, and 18 mg/kg, L, M, H) and a positive control drug group (200 mg/kg of etamsylate, P).\nas §1"}, "[3]": {"settings": "mouse, in vivo, ip, 200 mg/kg", "method": "(§7) After the grouping, the mice in the normal group and the model group were intragastrically administrated with 10 ml/kg of an icaritin solvent which was prepared by adding 12 g of hypromellose E5 and 0.1 g of sodium lauryl sulfate into 1 L of water. […] One hour after the last pre-administration, the mice in the model group and each administration group were injected with 150 U/kg of a heparin sodium injection through a tail vein to establish a model, and the mice in the normal group were injected with 10 ml/kg of a sodium chloride injection through a tail vein.\n(§8) After the bleeding time was detected, the mice were anesthetized with sodium pentobarbital, blood was collected from an abdominal cardinal vein, and indicators of blood routine examination and four coagulation indicators (prothrombin time, thromboplastin time, thrombin time, and fibrinogen) were detected."}, "[4]": {"settings": "mouse, in vivo, ip, 200 mg/kg", "remark": "listed apart in the source", "method": "as §7, §8"}, "[5]": {"test_system": "hemorrhagic transformation model induced by aspirin combined with cerebral ischemia-reperfusion", "experiment": "Hemorrhagic transformation after cerebral ischemia-reperfusion (MCAO) caused by aspirin, bleeding rate", "assay_type": "in vivo, ICR mice", "settings": "12 mg/kg i.g. Day 1-3 with aspirin 100 mg/kg; 24 h after MCAO; of 9 (icaritin) or 8 (icariin) animals", "experimental": "(§2) 5-week-old ICR male mice were fed to 6-week-old and divided into a control group, a model group, an icaritin-3 mg/kg group, an icaritin-6 mg/kg group, an icaritin-12 mg/kg group, and an icariin-12 mg/kg group according to body weight. From day 1 to day 3 after the grouping, the mice in each icaritin group were separately intragastrically administrated with 3, 6, and 12 mg/kg of icaritin and the mice in the icariin group was intragastrically administrated with 12 mg/kg of icariin once a day, and the mice in other groups were intragastrically administrated with a corresponding vehicle; and except the control group, the mice in other groups were intragastrically administrated with aspirin (100 mg/kg) or clopidogrel (15 mg/kg) once a day at a volume of 10 mL/kg.\n(§3) On day 3, 10 min after the administration, the mice were anesthetized by intraperitoneal injection of 70 mg/kg of pentobarbital sodium and subjected to a cerebral ischemia-reperfusion (middle cerebral artery occlusion, MCAO) surgery with ischemia for 1 h and reperfusion for 23 h.\n(§4) 24 h after the surgery was an end point of the experiment.\n(§5) Bleeding rate: the mice were anesthetized by intraperitoneal injection of 70 mg/kg of pentobarbital sodium, a brain tissue was taken out, cerebral hemorrhage was recorded and a bleeding rate of the mice in each group was calculated. Cerebral hemorrhage rate %=number of animals with cerebral hemorrhage/number of surviving animals in each group×100."}, "[6]": {"test_system": "hemorrhagic transformation model induced by clopidogrel combined with cerebral ischemia-reperfusion", "experiment": "Hemorrhagic transformation after cerebral ischemia-reperfusion (MCAO) caused by clopidogrel, bleeding rate", "assay_type": "in vivo, ICR mice", "settings": "12 mg/kg i.g. Day 1-3 with clopidogrel 15 mg/kg; 24 h after MCAO; of 8 (icaritin) or 7 (icariin) animals", "experimental": "as §2, §3, §4, §5"}, "[7]": {"test_system": "gastric bleeding caused by thrombolytic drug", "design": "species or system SD rats", "settings": "rat, in vivo", "experimental": "(§6) An animal model of thromboembolic cerebral ischemia was prepared by blocking a middle cerebral artery with an autologous thrombus combined with a suture occlusion method, and a catheter was indwelled.\n24 h after the arterial administration, the rats in each group were anesthetized and dissected. The number of bleeding cases was observed under naked eyes and a light microscope, and a ratio of the number of bleeding cases to the total number was calculated."}, "gastric injury": {"test_system": "gastric injury", "design": "species or system SD rats", "settings": "rat, in vivo", "experimental": "as §6\nThe left lung and gastric antrum were excised, fixed with 100 g/L of a neutral formaldehyde solution, and dehydrated conventionally to be transparent, the dehydrated tissue was dipped with wax and embedded, the embedded tissue was sectioned and stained, and pathological changes were observed under a light microscope. A damage degree was graded according to a degree of tissue congestion, edema and cell degeneration from mild to severe: grade I: 0%-25%, grade II: 26%-50%, grade III: 51%-75%, and grade IV: >75% (bleeding was observed under the microscope)."}, "[8]": {"test_system": "hemorrhagic transformation induced by thrombolytic drug", "experiment": "Rat middle cerebral artery autologous thrombosis with rt-PA thrombolysis, cerebral hemorrhage volume", "assay_type": "in vivo", "experimental": "A rat model of middle cerebral artery autologous thrombosis was prepared according to the following method: rats were anesthetized by intraperitoneal injection of 10% […] at 350 mg/kg body weight and fixed on an operating table in a supine position, skin of the rats was routinely disinfected according to aseptic operation procedures, and draping was performed. An incision about 3.0-cm-long was taken from the skin in the middle of the neck, the muscle and the subcutaneous tissue were bluntly separated, the right bilateral common carotid arteries, external carotid arteries, and internal carotid arteries were separated to avoid damage to the vagus nerve, the internal carotid arteries were separated to the skull base, and the external carotid arteries were ligated at the bifurcation of the bilateral common carotid arteries. 0.1 ml of arterial blood from the femoral artery of the rat was taken using a 1-ml syringe, 4 U of thrombin was added, the materials were uniformly mixed and stood for 8-10 min, when the blood was coagulated, and the coagulated blood was injected into a 24 G venous indwelling needle to prepare a thrombus about 1-cm-long followed by a syringe containing 1-2 ml of normal saline. […]\nAnother 4 healthy rats were taken, sacrificed by excessive anesthesia, and subjected to cardiac perfusion. […] cerebral hemisphere tissues were taken, 0, 0.5, 1, 2, 4, 8, 16, 32, and 50 μL of arterial blood of male SD rats was successively added to each hemisphere tissue, PBS at a pH of 7.4 was added to a total volume of 3 ml, the tissue was homogenized for 30 s and ultrasonically lysed, and centrifugation was performed at 13,000 r/min and 4° C. for 30 min 0.8 mL of Drabkin's reagent was mixed with 0.2 mL of a supernatant of each sample, an obtained mixture was placed in a dark place at a room temperature for 10 min, and an absorbance at a wavelength of 540 nm (absorbance of sample not containing blood was set to 0) was measured. The absorbance was set as a Y-axis and the blood volume in each sample was set as an X-axis to draw a standard curve. […]"}, "cerebral infarction": {"test_system": "cerebral infarction", "experiment": "Same rt-PA thrombolysis model, cerebral infarction volume (rate)", "assay_type": "in vivo, rats", "settings": "rt-PA 5 mg/kg alone, compared with the model group", "experimental": "An incision about 3.0-cm-long was taken from the skin in the middle of the neck, the muscle and the subcutaneous tissue were bluntly separated, the right bilateral common carotid arteries, external carotid arteries, and internal carotid arteries were separated to avoid damage to the vagus nerve, the internal carotid arteries were separated to the skull base, and the external carotid arteries were ligated at the bifurcation of the bilateral common carotid arteries. 0.1 ml of arterial blood from the femoral artery of the rat was taken using a 1-ml syringe, 4 U of thrombin was added, the materials were uniformly mixed and stood for 8-10 min, when the blood was coagulated, and the coagulated blood was injected into a 24 G venous indwelling needle to prepare a thrombus about 1-cm-long followed by a syringe containing 1-2 ml of normal saline. […] Infarct volume=non-ischemic side hemisphere volume-ischemic side hemisphere non-infarct area volume, and an infarct volume ratio was expressed as the percentage (%) of the infarct volume to the non-ischemic side hemisphere volume."}, "myocardial infarction [9]": {"test_system": "myocardial infarction", "experiment": "Isoproterenol myocardial infarction rats, electrocardiogram", "assay_type": "in vivo, Wistar male rats", "settings": "rt-PA 5 mg/kg femoral vein, compared with the model group", "experimental": "60 Wistar male rats (SPF grade), weighing 220-260 g, were randomly divided into a myocardial infarction modeling group and a control group according to a random number table, with 12 rats in the control group and 48 rats in the model group. The rats were conventionally fed in separate cages with 4 rats per cage. After a normal electrocardiogram was traced, the rats in the myocardial infarction modeling group were subcutaneously injected with 150 mg·kg^−1·d^−1 of isoproterenol (ISO) in a volume of 0.2 mL/100 g every other 24 h for 2 consecutive days. The rats in the control group were subcutaneously injected with a same amount (0.2 mL/100 g) of normal saline according the same method for 2 consecutive days. The electrocardiogram was monitored 24 h after the second subcutaneous injection of the isoproterenol. […] The ST segment elevation of greater than 0.2 mV in lead II or the formation of Q wave became the standard for myocardial infarction. […]\nThe rats were anesthetized by inhalation of ether. […] The electrocardiogram of the rat was monitored using the limb leads according to right upper limb-red, left upper limb-yellow, left lower limb-green, and right lower limb-black, an electrocardiograph was turned on at a paper speed of 50 mm/s and a voltage of 1 mv, and the animals were returned to the cages after the electrocardiogram."}, "myocardial infarction [10]": {"test_system": "myocardial infarction", "experiment": "Isoproterenol myocardial infarction rats, heart weight / body weight", "assay_type": "in vivo, Wistar male rats", "settings": "rt-PA 5 mg/kg femoral vein", "experimental": "60 Wistar male rats (SPF grade), weighing 220-260 g, were randomly divided into a myocardial infarction modeling group and a control group according to a random number table, with 12 rats in the control group and 48 rats in the model group. The rats were conventionally fed in separate cages with 4 rats per cage. After a normal electrocardiogram was traced, the rats in the myocardial infarction modeling group were subcutaneously injected with 150 mg·kg^−1·d^−1 of isoproterenol (ISO) in a volume of 0.2 mL/100 g every other 24 h for 2 consecutive days. The rats in the control group were subcutaneously injected with a same amount (0.2 mL/100 g) of normal saline according the same method for 2 consecutive days. The electrocardiogram was monitored 24 h after the second subcutaneous injection of the isoproterenol. […] The ST segment elevation of greater than 0.2 mV in lead II or the formation of Q wave became the standard for myocardial infarction.\nA total of 36 modeled rats were selected from the modeling group and randomly divided into a model group, a thrombolysis group and a thrombolytic drug+icaritin group according to the random number table. […]"}}, "data": [{"compound": "O=S(=O)(O)c1cc(O)ccc1O", "note": "[Etamsylate, reference compound]", "values": [{"measurement": "Bleeding time", "setting": "[1]", "result": "21.4 ± 6.7^$ min"}, {"measurement": "Bleeding time", "setting": "[2]", "result": "26.4 ± 6.4^$ min"}, {"measurement": "Number of erythrocytes", "setting": "[3]", "result": "6.998 ± 0.871 10^12/L"}, {"measurement": "Number of leukocytes", "setting": "[3]", "result": "1.903 ± 0.221 10^9/L"}, {"measurement": "Number of platelets", "setting": "[3]", "result": "1097 ± 114 10^9/L"}, {"measurement": "Fibrinogen", "setting": "[4]", "result": "1.86 ± 0.40", "unit": "g/L"}, {"measurement": "Prothrombin time", "setting": "[4]", "result": "10.03 ± 1.24", "unit": "s"}, {"measurement": "Thrombin time", "setting": "[4]", "result": "24.34 ± 1.37", "unit": "s"}, {"measurement": "Thromboplastin time", "setting": "[4]", "result": "22.78 ± 2.34", "unit": "s"}]}, {"compound": "COc1ccc(-c2oc3c(CC=C(C)C)c(O[C@@H]4O[C@H](CO)[C@@H](O)[C@H](O)[C@H]4O)cc(O)c3c(=O)c2O[C@@H]2O[C@@H](C)[C@H](O)[C@@H](O)[C@H]2O)cc1", "note": "[Icariin, reference compound]", "values": [{"measurement": "Number of animals with cerebral hemorrhage", "setting": "[5]", "result": 6}, {"measurement": "Number of animals with cerebral hemorrhage", "setting": "[6]", "result": 5}]}, {"compound": "Urokinase", "values": [{"measurement": "Bleeding rate", "setting": "[7]", "result": "68.8^$ $ %"}, {"measurement": "Number of bleeding animals", "setting": "[7]", "result": 11}, {"measurement": "Incidence of gastric injury", "setting": "gastric injury", "result": "100 ^$ $ %"}, {"measurement": "Number of animals, gastric damage grade I", "setting": "gastric injury", "result": 1}, {"measurement": "Number of animals, gastric damage grade II", "setting": "gastric injury", "result": 2}, {"measurement": "Number of animals, gastric damage grade III", "setting": "gastric injury", "result": 2}, {"measurement": "Number of animals, gastric damage grade IV", "setting": "gastric injury", "result": 11}, {"measurement": "Total number of animals with gastric injury", "setting": "gastric injury", "result": 16}]}, {"compound": "rt-PA: alteplase (rt-PA), thrombolytic drug, 5 mg/kg via the femoral vein", "values": [{"measurement": "Cerebral hemorrhage volume", "setting": "[8]; rt-PA 5 mg/kg femoral vein 3 h after modeling, 3 h after thrombolysis", "result": "6.43 ± 0.89"}, {"measurement": "Cerebral hemorrhage volume", "setting": "[8]; rt-PA 5 mg/kg femoral vein, 6 h after thrombolysis", "result": "9.78 ± 1.01"}, {"measurement": "Cerebral hemorrhage volume", "setting": "[8]; rt-PA 5 mg/kg femoral vein, 24 h after thrombolysis", "result": "15.32 ± 2.01"}, {"measurement": "Pale white area of the infarcted area", "setting": "cerebral infarction", "result": "significantly decreased"}, {"measurement": "Pathological Q waves in electrocardiogram", "setting": "myocardial infarction [9]", "result": "disappeared"}, {"measurement": "Whole heart weight", "setting": "myocardial infarction [10]", "result": "702.3 ± 10.8", "unit": "mg"}, {"measurement": "Heart weight/body weight", "setting": "myocardial infarction [10]; model group 4.0, control 2.6", "result": "2.8^$ $ mg/g"}]}]}
